Data as given in patent US7820078B2, “Layer configuration with improved stability to sunlight exposure” (Agfa Graphics, N.V., priority 2007, dated 2010).

Conditions: cited from earlier work

Q: Which pKa does the source give for `Sc1nnnn1-c1ccccc1` [1-phenyl-5-mercaptotetrazole] here?
A: Its pKa is 2.30.

Q: Which pKa does the source give for `Cc1nc2ccccc2[nH]1` [2-methylbenzimidazole] here?
A: The pKa was 6.96.

Q: With `CC(C)N` [isopropylamine] as the compound, how does the pKa read?
A: The pKa was 10.63.

Q: For `c1ccc2cnccc2c1` [isoquinoline], which pKa is on record?
A: The pKa was 5.2.

Q: With `c1cn[nH]c1` [pyrazole] as the compound, how does the pKa read?
A: Its pKa is 2.53.

Conditions: not given

Q: With `Oc1ccc2ccccc2c1O` as the compound, how does the melting point read?
A: The melting point was 101 to 103 °C.
